For test [1], the target named is T1, Adenosine receptor A3 (Homo sapiens, UniProt P0DMS8).
T1 sequence (P0DMS8 whole entry): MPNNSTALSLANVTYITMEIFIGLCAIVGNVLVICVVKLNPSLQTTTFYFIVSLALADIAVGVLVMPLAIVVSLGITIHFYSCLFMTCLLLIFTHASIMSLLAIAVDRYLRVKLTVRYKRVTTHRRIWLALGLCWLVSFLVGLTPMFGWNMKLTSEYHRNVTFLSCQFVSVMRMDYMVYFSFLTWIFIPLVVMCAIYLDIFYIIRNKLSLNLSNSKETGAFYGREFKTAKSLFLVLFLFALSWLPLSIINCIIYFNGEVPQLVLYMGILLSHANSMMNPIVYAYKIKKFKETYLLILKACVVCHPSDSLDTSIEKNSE
Put plainly: Displacement of radioligand from human adenosine A3 receptor expressed in CHO cells. The format is cell-based.

For test [2], the target named is T2, Adenosine receptor A1 (Mus musculus, UniProt Q60612).
T2 sequence (Q60612 whole entry): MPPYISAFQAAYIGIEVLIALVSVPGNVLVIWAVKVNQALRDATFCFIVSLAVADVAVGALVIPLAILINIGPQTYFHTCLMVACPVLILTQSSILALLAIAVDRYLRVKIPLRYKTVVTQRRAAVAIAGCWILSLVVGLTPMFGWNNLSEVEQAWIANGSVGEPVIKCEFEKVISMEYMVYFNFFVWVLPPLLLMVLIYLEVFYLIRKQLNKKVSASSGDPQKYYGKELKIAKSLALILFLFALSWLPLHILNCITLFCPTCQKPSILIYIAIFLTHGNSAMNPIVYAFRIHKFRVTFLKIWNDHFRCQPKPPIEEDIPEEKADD
Briefly: Displacement of [125I]N6-(4-amino-3-iodobenzyl)adenosine-5'-N-methyl-uronamide from mouse recombinant adenosine A1 receptor expressed in HEK293 cells. The test is classed as cell-based. (Loss of bound radioactivity is the signal in a displacement assay; it reports binding, not function.)

Another test is filed under the species Mus musculus. Briefly: Selectivity for mouse adenosine A3 receptor over mouse adenosine A1 receptor.
The target of test [3] is Adenosine receptor A2a (Mus musculus) (UniProt Q60613). Put plainly: Displacement of [3H]2-[p-(2-carboxyethyl)phenyl-ethylamino]-5'-N-ethylcarbox-amidoadenosine from mouse recombinant adenosine A2A receptor expressed in HEK293 at 100 uM. The test is classed as cell-based.
Chain of Adenosine receptor A2a (Mus musculus) (Q60613 whole entry): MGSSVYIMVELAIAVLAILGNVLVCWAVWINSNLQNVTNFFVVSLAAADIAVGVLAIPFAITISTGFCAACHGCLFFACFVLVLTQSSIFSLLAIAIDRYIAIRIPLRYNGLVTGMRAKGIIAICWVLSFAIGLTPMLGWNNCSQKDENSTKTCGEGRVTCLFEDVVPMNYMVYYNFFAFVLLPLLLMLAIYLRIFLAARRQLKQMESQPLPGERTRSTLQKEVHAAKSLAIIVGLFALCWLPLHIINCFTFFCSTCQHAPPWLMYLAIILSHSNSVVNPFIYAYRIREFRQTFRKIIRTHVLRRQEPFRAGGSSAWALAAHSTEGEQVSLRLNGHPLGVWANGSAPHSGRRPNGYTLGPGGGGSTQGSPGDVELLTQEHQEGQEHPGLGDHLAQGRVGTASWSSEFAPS
For test [4], the target named is T3, Adenosine receptor A1 (Homo sapiens, UniProt P30542).
T3 sequence (P30542 whole entry): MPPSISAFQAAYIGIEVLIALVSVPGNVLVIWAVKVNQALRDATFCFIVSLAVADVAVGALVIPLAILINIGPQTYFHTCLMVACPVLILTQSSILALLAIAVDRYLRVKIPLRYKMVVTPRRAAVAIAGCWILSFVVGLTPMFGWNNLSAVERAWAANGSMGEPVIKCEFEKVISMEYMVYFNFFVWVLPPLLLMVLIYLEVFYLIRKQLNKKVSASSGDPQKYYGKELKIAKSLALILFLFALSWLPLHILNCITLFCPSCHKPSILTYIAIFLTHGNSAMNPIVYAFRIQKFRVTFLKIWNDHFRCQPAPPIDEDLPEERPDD
Briefly: Displacement of radioligand from human adenosine A1 receptor expressed in CHO cells. The test is classed as cell-based.

In test [5] the target is T4, Adenosine receptor A2a (Homo sapiens, UniProt P29274). Briefly: Displacement of radioligand from human A2A adenosine receptor expressed in HEK293 cells at 10 uM. The test is classed as cell-based.
T4 sequence (P29274 whole entry): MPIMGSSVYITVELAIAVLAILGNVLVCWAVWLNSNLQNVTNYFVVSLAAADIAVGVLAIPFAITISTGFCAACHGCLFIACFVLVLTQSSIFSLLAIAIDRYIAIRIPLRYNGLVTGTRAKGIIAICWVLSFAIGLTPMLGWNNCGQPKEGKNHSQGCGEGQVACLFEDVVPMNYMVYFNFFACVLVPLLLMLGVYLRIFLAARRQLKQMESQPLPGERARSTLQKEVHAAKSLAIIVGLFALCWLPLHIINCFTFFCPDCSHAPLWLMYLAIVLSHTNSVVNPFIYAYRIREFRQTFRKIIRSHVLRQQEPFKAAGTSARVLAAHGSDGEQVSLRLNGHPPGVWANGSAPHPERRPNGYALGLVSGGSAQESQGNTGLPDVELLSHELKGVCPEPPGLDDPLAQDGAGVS
Test [6] concerns the target Adenosine receptors; A1 & A3 (Homo sapiens) (UniProt P30542+P0DMS8). Put plainly: Selectivity for human adenosine A3 receptor over human adenosine A1 receptor.
Test [7] deals with T5, Adenosine receptor A3 (Mus musculus, UniProt Q61618).
T5 sequence (Q61618 whole entry): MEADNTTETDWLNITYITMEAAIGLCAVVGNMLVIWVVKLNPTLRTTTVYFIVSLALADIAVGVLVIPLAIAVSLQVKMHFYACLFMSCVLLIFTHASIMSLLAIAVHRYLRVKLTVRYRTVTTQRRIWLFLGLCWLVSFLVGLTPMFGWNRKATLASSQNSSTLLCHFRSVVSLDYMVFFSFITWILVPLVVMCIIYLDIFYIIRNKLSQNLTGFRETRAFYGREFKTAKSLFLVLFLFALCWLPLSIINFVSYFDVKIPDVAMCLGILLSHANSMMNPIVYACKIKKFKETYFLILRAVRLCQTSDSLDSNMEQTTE
Briefly: Displacement of [125I]N6-(-amino-3-iodobenzyl)adenosine-5'-N-methyl-uronamide from mouse recombinant adenosine A3 receptor expressed in HEK293 cells. The test is classed as cell-based.

Test [8] concerns the target Adenosine receptor A2a (Mus musculus, UniProt Q60613). Briefly: Displacement of [3H]2-[p-(2-carboxyethyl)phenyl-ethylamino]-5'-N-ethylcarboxamidoadenosine from mouse recombinant adenosine A2A receptor expressed in HEK293 cells. The test is classed as cell-based.
The target in another test is T6, Adenosine receptor A2b (Homo sapiens, UniProt P29275).
T6 sequence (P29275 whole entry): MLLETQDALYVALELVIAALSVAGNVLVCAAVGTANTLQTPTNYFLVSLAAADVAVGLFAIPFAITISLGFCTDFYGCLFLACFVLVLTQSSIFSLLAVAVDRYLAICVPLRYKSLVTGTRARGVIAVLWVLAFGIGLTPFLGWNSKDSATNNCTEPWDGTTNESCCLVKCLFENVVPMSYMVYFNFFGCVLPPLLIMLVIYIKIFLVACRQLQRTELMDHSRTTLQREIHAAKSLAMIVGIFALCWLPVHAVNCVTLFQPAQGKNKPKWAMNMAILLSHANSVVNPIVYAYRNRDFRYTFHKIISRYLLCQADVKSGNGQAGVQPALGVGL
Put plainly: Activation of human adenosine A2B receptor.

Test [9] addresses T4, Adenosine receptor A2a. Put plainly: Displacement of radioligand from human adenosine A2A receptor expressed in HEK293 cells. The format is cell-based.

Chain of Adenosine receptor A2a (Mus musculus, UniProt Q60613) (Q60613 whole entry): as the sequence (Q60613 whole entry) above

With `CNC(=O)[C@@]12C[C@@H]1[C@@H](n1cnc3c(NCc4cccc(Cl)c4)nc(C#C[Si](C)(C)C)nc31)[C@H](O)[C@@H]2O`, the Ki – broadly, a dissociation constant, usually derived from enzyme kinetics or from competition with a known ligand – on Adenosine receptor A3 [1] worked out at 0.98 nM; at Adenosine receptor A1 [2], 159 nM; at Adenosine receptor A1 [4] it was 160 nM; at Adenosine receptor A3 [7], 4.46 nM. The values for the Ratio Ki (in the test listed under Mus musculus; in test [6]) were 35.6 and 160, respectively. In addition, the figures for the inhibition (in [3]; on Adenosine receptor A2a [5]) were 20% and 52%, respectively.
As for `CCCC#Cc1nc(NCc2cccc(Cl)c2)c2ncn([C@H]3[C@H](O)[C@H](O)[C@]4(C(=O)NC)C[C@H]34)c2n1`, the inhibition (usually how much of the control response was suppressed) in test [3] came out at 42%; at Adenosine receptor A2a [5] it was 80%.
Turning to `CNC(=O)[C@@]12C[C@@H]1[C@@H](n1cnc3c(NCc4cccc(Cl)c4)nc(C#CCCCC(=O)O)nc31)[C@H](O)[C@@H]2O`, the inhibition stood at 8% in test [3] and 43% on Adenosine receptor A2a [5].
In the case of `CNC(=O)C12C[C@@H]1[C@@H](n1cnc3c(NCc4cccc(C#CCO)c4)nc(Cl)nc31)[C@H](O)[C@@H]2O` (single isomer, unassigned), the inhibition in test [3] was 11%; at Adenosine receptor A2a [5], 56%.
Consider `CNC(=O)[C@@]12C[C@@H]1[C@@H](n1cnc3c(NCc4cccc(Cl)c4)nc(C#CCCCC(=O)OC)nc31)[C@H](O)[C@@H]2O`, for which the Ki on Adenosine receptor A1 [2] stood at 1340 nM; at Adenosine receptor A1 [4], 482 nM; on Adenosine receptor A3 [7] it was 4.65 nM. Moreover, the inhibition turned out to be 50% in test [3] and 49% on Adenosine receptor A2a [5].
For `CNC(=O)[C@@]12C[C@@H]1[C@@H](n1cnc3c(NCc4cccc(C#CCCCC(=O)NCCN)c4)nc(Cl)nc31)[C@H](O)[C@@H]2O`, the Ki on Adenosine receptor A3 [1] was determined as 5.21 nM; at Adenosine receptor A1 [2], 151 nM; at Adenosine receptor A1 [4], 271 nM; at Adenosine receptor A3 [7], 11.9 nM. Also, the Ratio Ki worked out at 13 in the test filed under Mus musculus and 52 in [6]. The inhibition was found to be 39% in test [3] and 58% at Adenosine receptor A2a [5].
Turning to `CNC(=O)[C@@]12C[C@@H]1[C@@H](n1cnc3c(NOC)nc(Cl)nc31)[C@H](O)[C@@H]2O`, the Ki is 149 nM on Adenosine receptor A3 [1], 1160 nM at Adenosine receptor A1 [2], 265 nM on Adenosine receptor A1 [4] and 877 nM at Adenosine receptor A3 [7]. Besides, the results for the Ratio Ki (in the test listed under Mus musculus; in test [6]) were 1.3 and 1.8, respectively. Also, the inhibition (in [3]; on Adenosine receptor A2a [5]) was 2% throughout.
For `CNC(=O)[C@@]12C[C@@H]1[C@@H](n1cnc3c(NCc4cccc(C#CCCCC(=O)O)c4)nc(Cl)nc31)[C@H](O)[C@@H]2O`, the inhibition in [3] amounted to 5%; on Adenosine receptor A2a [5], 14%.
As for `CNC(=O)C12C[C@@H]1[C@@H](n1cnc3c(NCc4cccc(Br)c4)nc(Cl)nc31)[C@H](O)[C@@H]2O` (single isomer, unassigned), the results for the Ki on Adenosine receptor A1 [2], on Adenosine receptor A2a [8] and on Adenosine receptor A3 [7] were 8.79 nM, 6390 nM and 0.9 nM, respectively. Further, the Ratio Ki in the test listed under Mus musculus is 9.8; in [6], 710. Further, the EC50 (as a rule, the concentration at which the effect is half-maximal) on Adenosine receptor A2b is not below 10000 nM.
`CNC(=O)C12C[C@@H]1[C@@H](n1cnc3c(NCc4cc(OC)ccc4OC)nc(Cl)nc31)[C@H](O)[C@@H]2O` (single isomer, unassigned): the Ki was found to be 29 nM at Adenosine receptor A1 [2], 10000 nM on Adenosine receptor A2a [9], 44700 nM on Adenosine receptor A2a [8] and 1.72 nM at Adenosine receptor A3 [7]. Moreover, the Ratio Ki in the test listed under Mus musculus was found to be 17; in test [6], 1100. At Adenosine receptor A2b, this compound displayed an EC50 not below 10000 nM.
As to `CNC(=O)[C@@]12C[C@@H]1[C@@H](n1cnc3c(NCc4cccc(I)c4)nc(Cl)nc31)[C@H](O)[C@@H]2O`, the Ki at Adenosine receptor A1 [2] was determined as 7.32 nM; at Adenosine receptor A2a [8], 5350 nM; at Adenosine receptor A3 [7] it was 0.8 nM. Also, the EC50 on Adenosine receptor A2b was not below 10000 nM.
Regarding `CNC(=O)[C@@]12C[C@@H]1[C@@H](n1cnc3c(NCc4cccc(C#CCCCC(=O)NCCNC(C)=O)c4)nc(Cl)nc31)[C@H](O)[C@@H]2O`, the inhibition in test [3] is 68%; at Adenosine receptor A2a [5], 80%.
Take `CNC(=O)[C@@]12C[C@@H]1[C@@H](n1cnc3c(NCc4cccc(Cl)c4)nc(C#CCCCC(=O)NCCN)nc31)[C@H](O)[C@@H]2O`: the Ki on Adenosine receptor A3 [1] was found to be 2.17 nM; on Adenosine receptor A1 [2], 546 nM; at Adenosine receptor A1 [4], 454 nM; on Adenosine receptor A3 [7] it was 8.6 nM. The Ratio Ki amounted to 64 in the test listed under Mus musculus and 209 in test [6]. Moreover, the values for the inhibition (in test [3]; at Adenosine receptor A2a [5]) were 31% and 81%, respectively.
As to `CNC(=O)C12C[C@@H]1[C@@H](n1cnc3c(NCc4cccc(Cl)c4)nc(SC)nc31)[C@H](O)[C@@H]2O` (single isomer, unassigned), the inhibition constant (Ki) on Adenosine receptor A1 [2] was 98.9 nM; on Adenosine receptor A2a [9] it was 10000 nM; on Adenosine receptor A3 [7], 1.19 nM. Also, the Ratio Ki was determined as 83 in the test filed under Mus musculus and 410 in [6]. The inhibition in test [3] came to 32%.
`CNC(=O)[C@@]12C[C@@H]1[C@@H](n1cnc3c(NCc4cccc(Cl)c4)nc(Cl)nc31)[C@H](O)[C@@H]2O`: the Ki at Adenosine receptor A1 [2] is 15.3 nM; on Adenosine receptor A2a [8], 10400 nM; at Adenosine receptor A3 [7], 1.49 nM. The compound further registered an EC50 on Adenosine receptor A2b not below 10000 nM.
Regarding `CNC(=O)C12C[C@@H]1[C@@H](n1cnc3c(NCC(c4ccccc4)c4ccccc4)nc(Cl)nc31)[C@H](O)[C@@H]2O` (single isomer, unassigned), the Ki at Adenosine receptor A1 [2] was 6.83 nM; at Adenosine receptor A2a [8], 1810 nM; on Adenosine receptor A3 [7], 1.67 nM. Also, the Ratio Ki in the test filed under Mus musculus is 4.1; in [6], 1900. This compound also showed an EC50 at Adenosine receptor A2b not below 10000 nM.
`CNC(=O)[C@@]12C[C@@H]1[C@@H](n1cnc3c(NCc4cc(OC)ccc4OC)nc(I)nc31)[C@H](O)[C@@H]2O`: the inhibition in test [3] is 14%; on Adenosine receptor A2a [5], 35%.
`CNC(=O)C12C[C@@H]1[C@@H](n1cnc3c(NCc4cccc(Cl)c4)nc(I)nc31)[C@H](O)[C@@H]2O` (single isomer, unassigned) had a Ki at Adenosine receptor A2a [9] of more than 10000 nM. In addition, in test [3], the inhibition is 40%.
As to `CNC(=O)C12C[C@@H]1[C@@H](n1cnc3c(NC4CC4c4ccccc4)nc(Cl)nc31)[C@H](O)[C@@H]2O` (single isomer, unassigned), the Ki on Adenosine receptor A2a [8] was determined as 38200 nM. Also, at Adenosine receptor A2b, the EC50 was not below 10000 nM.
In the case of `C#Cc1nc(NCc2cccc(Cl)c2)c2ncn([C@H]3[C@H](O)[C@H](O)[C@]4(C(=O)NC)C[C@H]34)c2n1`, the inhibition in test [3] was found to be 41%; at Adenosine receptor A2a [5] it was 48%.
